We go through 20 compounds from patent US12220415B2, “WEE1 kinase inhibitors and methods of treating cancer using the same” (The Regents of the University of Colorado, A Body Corporate, priority 2018, dated 2025).

Structures are written as SMILES. Where two headings read alike, the source gives them in different places.

One experiment concerns the target recombinant WEE1 kinase (Homo sapiens (Human), UniProt P30291). Kind of experiment: LanthaScreen Eu TR-FRET kinase binding assay for WEE1 kinase inhibitory activity. The note with it: Kinase Tracer 178, 1 hour at room temperature. On the procedure: A LanthaScreen™ kinase activity assay was conducted to assess WEE1 kinase inhibitory activity for compounds of this disclosure. […] All reagents were prepared as solutions in 1× kinase buffer A (Invitrogen) at 3× final desired concentration. […] Inhibitors were assayed in the final concentration range of 0.04 nM to 10 μM.
(Time-resolved FRET reads energy transfer from a long-lived donor to a nearby acceptor.)

In the next experiment the test system is medulloblastoma cells. The note with it: Mol Cancer. 2014, 13:72, cited from earlier work.
The subject of a further experiment is ONS-76 cells. Briefly: MTS cell viability assay in ONS-76 cells. The format is cell-based. The note with it: Homo sapiens; for EC50: read-out: EC50 cellular metabolic viability, ONS-76; for IC50: read-out: Mean IC50, ONS-76; for inhibition at 1.16 µM: @ 1160 nM, read-out: percent cell inhibition, ONS-76. On the procedure: (§1) FIG. 1A is a dose-response study for ONS-76 cells treated with a concentration range of WEE1 inhibitors for 72 hours in an MTS assay. […] FIG. 1B is a dose-response study for Daoy cells treated with a concentration range of WEE1 inhibitors for 72 hours in an MTS assay.
(§2) To evaluate the effect of the WEE1 kinase inhibitors, Daoy cells and ONS-76 cells (human primary medulloblastoma cell lines) were treated with test compounds and cell growth was by MTS assay (FIGS. 1A and 1B). […] Cells were incubated for 72 hr with 50 μL of each diluted drug solution. Cell viability was measured by 2 hr incubation with 30 μL CellTiter 96® AQueous One Cell Proliferation reagent (Promega) and formazan concentration assessed through colorimetric analysis using a BioTek Synergy H1 plate reader (Absorption=490 nm).
On the technique in general: Formazan colour is commonly taken as a measure of viable cells.

The subject of another experiment is Daoy cells. Kind of experiment: MTS cell viability assay in Daoy cells. The note with it: for EC50: read-out: EC50 cellular metabolic viability, Daoy; for activity at 0.6 µM: at 600 nM; for inhibition at 0.6 µM: 72 hr, @ 600 nM, read-out: percent cell inhibition, DAOY. The format is cell-based, human. On the procedure:
as §1, §2

Experiment [1] deals with pCDK1 (Tyr15) in Daoy cell lysates. Kind of experiment: pCDK1 (Tyr15) ELISA in Daoy cell lysates. The format is cell-based, human. The conditions noted are these: 24 hours, single 220 nM dose. On the procedure:
WEE1 inactivates CDC2 through selective phosphorylation of the Tyr15 residue of cyclin-dependent kinase 1 (CDK1) stabilizing the CDC2-cyclin B complex. Therefore, inhibition of WEE1 kinase activity will prevent the phosphorylation of its substrate CDK1 at Tyr15. […] Following drug incubation, the media was aspirated from cells before cells were trypsinized and resuspended in TES/SB buffer containing protease inhibitors. Cells were lysed on ice through sonication, and cell lysates were diluted with ELISA Pathscan® sample diluent to a final volume of 100 μL and protein concentration of 0.05 mg/ml prior to use. The relative concentration of p-CDK1 Tyr15 was determined using an enzyme-linked immunosorbent assay according to recommended protocol (Cell Signaling, ELISA Pathscan® phosphor-Cdc2 (Tyr15)).

In experiment [2] the test system is murine AML-expressing MLL-ENL, FLT3-ITD, and luciferase. Kind of experiment: Murine AML model, disease progression by luciferase expression. The format is in vivo. The conditions noted are these: mice with AML, cytarabine alone. The protocol:
In a second toxicity study, mice without leukemia were treated with cytarabine and/or a WEE1 inhibitor for 5 of 7 days for 3 consecutive weeks. […] The inventors then used an aggressive model of murine AML-expressing MLL-ENL, FLT3-ITD, and luciferase, to determine whether WEE1 inhibition would enhance the anti-leukemia effects of cytarabine.

Where [3] appears, read: ONS-76 cells, 72 hours, MTS assay, n=3, ±=S.D.
[4] abbreviates: Homo sapiens, Daoy cells, 72 hours, MTS assay.
[5] abbreviates: Homo sapiens, Daoy cells, MTS assay.

recombinant WEE1 kinase, sequence (P30291 whole entry): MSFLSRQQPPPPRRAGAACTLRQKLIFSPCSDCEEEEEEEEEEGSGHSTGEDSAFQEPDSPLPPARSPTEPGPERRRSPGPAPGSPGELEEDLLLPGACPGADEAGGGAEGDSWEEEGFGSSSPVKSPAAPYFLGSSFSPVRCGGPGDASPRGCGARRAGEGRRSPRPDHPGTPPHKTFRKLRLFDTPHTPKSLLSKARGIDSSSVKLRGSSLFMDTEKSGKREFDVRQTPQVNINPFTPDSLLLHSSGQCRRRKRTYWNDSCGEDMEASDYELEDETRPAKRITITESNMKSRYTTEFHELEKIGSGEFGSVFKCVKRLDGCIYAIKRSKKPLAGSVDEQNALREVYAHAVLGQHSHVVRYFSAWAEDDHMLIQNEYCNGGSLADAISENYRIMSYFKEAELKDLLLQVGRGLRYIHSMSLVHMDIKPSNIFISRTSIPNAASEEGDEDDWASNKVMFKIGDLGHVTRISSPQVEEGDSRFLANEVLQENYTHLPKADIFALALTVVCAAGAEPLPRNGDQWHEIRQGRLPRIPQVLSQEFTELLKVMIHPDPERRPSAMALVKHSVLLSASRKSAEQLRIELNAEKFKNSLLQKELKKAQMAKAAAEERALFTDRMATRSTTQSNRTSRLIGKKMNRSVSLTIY

For `C=CCn1c(=O)c2cnc(N)nc2n1-c1cccc(C(C)(C)O)n1`, at recombinant WEE1 kinase, the IC50 (in general, the point on the concentration scale where inhibition reaches its midpoint) turned out to be 0.0177 µM.

For `C=CCn1c(=O)c2cnc(NCc3ccc(CC)cc3)nc2n1-c1cccc(C(C)(C)O)n1`, the IC50 on recombinant WEE1 kinase worked out at 0.0136 µM.

Regarding `C=CCn1c(=O)c2cnc(Nc3cccc(C#N)c3)nc2n1-c1cccc(C(C)(C)O)n1`, on recombinant WEE1 kinase, the IC50 is 0.0781 µM.

On to `C=CCn1c(=O)c2cnc(Nc3cccc(C(=O)N(C)C)c3)nc2n1-c1cccc(C(C)(C)O)n1`, for which, on recombinant WEE1 kinase, the IC50 came to 0.0273 µM.

`COc1ccc(Cn2c(=O)c3cnc(Nc4ccc(N5CCN(C)CC5)cc4)nc3n2-c2cccc(C(C)(C)O)n2)cc1`: the IC50 at recombinant WEE1 kinase was 0.0897 µM.

On to `C=C(C)c1cccc(-n2c3nc(Nc4ccc(N5CCN(C)CC5)cc4)ncc3c(=O)n2C)n1`, for which the half-inhibitory concentration (IC50) on recombinant WEE1 kinase came to 0.179 µM.

For the compound `C=CCn1c(=O)c2cnc(Nc3ccc(N4CCN(C)CC4)cc3)nc2n1-c1cccc(CO)c1`, the IC50 on recombinant WEE1 kinase is 0.0104 µM.

For `C=CCn1c(=O)c2cnc(Nc3ccc(N4CCN(C)CC4)cc3)nc2n1-c1cccc(C(C)(C)O)n1` [AZD1775, 2-allyl-1-(6-(2-hydroxypropan-2-yl)pyridin-2-yl)-6-((4-(4-methylpiperazin-1-yl)phenyl)amino)-1,2-dihydro-3H-pyrazolo[3,4-d]pyrimidin-3-one, reference compound], the “activity in combination with cisplatin” value in the experiment on medulloblastoma cells (medulloblastoma cells) is listed as “synergistic activity”. In the experiment with medulloblastoma cells (single agent), the “single agent effect in medulloblastoma” value is “suppressed cell growth, induced apoptosis, and decreased tumor growth”. Moreover, the EC50 (commonly the concentration at which the effect is half-maximal) was 0.29 µM in the experiment with ONS-76 cells (ONS-76, 72 h); 0.15 µM in the experiment on Daoy cells (Homo sapiens, Daoy, 72 h); 0.179 ± 0.016 µM in the experiment on Daoy cells (Daoy cells, 72 hours, MTS assay, n=3, ±=S.D.). Further, the IC50 is 0.221 µM in the experiment with ONS-76 cells (ONS-76, 72 h) and 0.378 µM with Daoy cells (Homo sapiens, Daoy, 72 h, read-out: Mean IC50, DAOY). Further, the “pCDK1(Tyr15) level compared to DMSO control” value in experiment [1] was “decrease”.

On to `C=CCn1c(=O)c2cnc(Nc3ccc(N4CCN(C)CC4)cc3)nc2n1-c1cccc(C(C)(C)O)c1` [CM-169, 2-allyl-1-(3-(2-hydroxypropan-2-yl)phenyl)-6-((4-(4-methylpiperazin-1-yl)phenyl)amino)-1,2-dihydro-3H-pyrazolo[3,4-d]pyrimidin-3-one], for which the inhibition – broadly, the change of the read-out against control, counted positive when it falls – at 1.16 µM with ONS-76 cells (ONS-76 cells, 72 hr, MTS assay) came to 61%. Further, the “pCDK1(Tyr15) level compared to DMSO control” value in experiment [1] is reported as “statistically the same as that for AZD1775”.

Turning to `C=CCn1c(=O)c2cnc(Nc3ccc(N4CCN(C)CC4)cc3)nc2n1-c1cccc(CO)n1` [CM-170, 2-allyl-1-(6-(hydroxymethyl)pyridin-2-yl)-6-((4-(4-methylpiperazin-1-yl)phenyl)amino)-1,2-dihydro-3H-pyrazolo[3,4-d]pyrimidin-3-one], the inhibition at 1.16 µM with ONS-76 cells (ONS-76 cells, 72 hr, MTS assay) is 59%.

Take `C=CCn1c(=O)c2cnc(Nc3ccc(OCCN(C)C)cc3)nc2n1-c1cccc(C(C)(C)O)n1` [CM-181, 2-allyl-6-((4-(2-(dimethylamino)ethoxy)phenyl)amino)-1-(6-(2-hydroxypropan-2-yl)pyridin-2-yl)-1,2-dihydro-3H-pyrazolo[3,4-d]pyrimidin-3-one]: the EC50 in the experiment with ONS-76 cells (setting [3]) amounted to 0.203 ± 0.04 µM. The IC50 with ONS-76 cells (ONS-76 cells, 72 hr, MTS assay) came out at 0.273 µM. Moreover, the activity at 0.6 µM with Daoy cells (setting [4]) is 81%. In addition, in the experiment on Daoy cells (setting [5]), the inhibition at 0.6 µM was determined as 82%. In addition, the “pCDK1(Tyr15) level compared to DMSO control” value in experiment [1] is on record as “decrease”.

Regarding `C=CCn1c(=O)c2cnc(Nc3cccc(CN(C)C)c3)nc2n1-c1cccc(C(C)(C)O)n1` [KAC-014, 2-allyl-6-((3-((dimethylamino)methyl)phenyl)amino)-1-(6-(2-hydroxypropan-2-yl)pyridin-2-yl)-1,2-dihydro-3H-pyrazolo[3,4-d]pyrimidin-3-one], in the experiment on ONS-76 cells (ONS-76 cells, 72 hr, MTS assay), the inhibition at 1.16 µM turned out to be 40%.

In the case of `C=CCn1c(=O)c2cnc(Nc3ccccc3)nc2n1-c1cccc(C(C)(C)O)n1` [KAC-017, 2-allyl-1-(6-(2-hydroxypropan-2-yl)pyridin-2-yl)-6-(phenylamino)-1,2-dihydro-3H-pyrazolo[3,4-d]pyrimidin-3-one], the inhibition at 1.16 µM in the experiment with ONS-76 cells (ONS-76 cells, 72 hr, MTS assay) is 32%.

`C=CCn1c(=O)c2cnc(Nc3cccc(N(C)C)c3)nc2n1-c1cccc(C(C)(C)O)n1` [KAC-019, 2-allyl-6-((3-(dimethylamino)phenyl)amino)-1-(6-(2-hydroxypropan-2-yl)pyridin-2-yl)-1,2-dihydro-3H-pyrazolo[3,4-d]pyrimidin-3-one]: the inhibition at 1.16 µM in the experiment with ONS-76 cells (ONS-76 cells, 72 hr, MTS assay) was 33%.

As to `C=CCn1c(=O)c2cnc(Nc3ccc(CCN(C)C)cc3)nc2n1-c1cccc(C(C)(C)O)n1` [KAC-034, 2-allyl-6-((4-(2-(dimethylamino)ethyl)phenyl)amino)-1-(6-(2-hydroxypropan-2-yl)pyridin-2-yl)-1,2-dihydro-3H-pyrazolo[3,4-d]pyrimidin-3-one], the half-maximal effective concentration (EC50) in the experiment with ONS-76 cells (setting [3]) was found to be 0.252 ± 0.009 µM. Also, the IC50 in the experiment on ONS-76 cells (ONS-76 cells, 72 hr, MTS assay) came out at 0.495 µM. Moreover, in the experiment on Daoy cells (setting [4]), the activity at 0.6 µM turned out to be 84%. Also, the inhibition at 0.6 µM in the experiment on Daoy cells (setting [5]) turned out to be 83%. In addition, the “pCDK1(Tyr15) level compared to DMSO control” value in experiment [1] was “decrease”.

Turning to `Nc1ccn([C@@H]2O[C@H](CO)[C@@H](O)[C@@H]2O)c(=O)n1` [cytarabine], in experiment [2], the “leukemia progression, measured by luciferase expression over time” value is listed as “slowed the progression of the leukemia”.

Regarding `C=CCn1c(=O)c2cnc(Nc3ccccc3)nc2n1-c1cccc(C(C)(C)O)n1` [drawing 14], the IC50 at recombinant WEE1 kinase was 0.0096 µM.

Take `C=CCn1c(=O)c2cnc(Nc3cccc(CN(C)C)c3)nc2n1-c1cccc(C(C)(C)O)n1` [drawing 18]: the concentration for half-maximal inhibition (IC50) at recombinant WEE1 kinase came to 0.0091 µM.

`C=CCn1c(=O)c2cnc(Nc3ccc(CCN(C)C)cc3)nc2n1-c1cccc(C(C)(C)O)n1` [drawing 20]: the IC50 on recombinant WEE1 kinase amounted to 0.0018 µM.

In the case of `C=CCn1c(=O)c2cnc(Nc3ccc(OCCN(C)C)cc3)nc2n1-c1cccc(C(C)(C)O)n1` [drawing 21], the IC50 on recombinant WEE1 kinase stood at 0.0078 µM.
